Laboratory results taken from the Kinase Knowledgebase extract (Sharma et al. 2016).
Values joined by “and” are separate entries in the source; they are usually repeats but may differ in a detail not shown here. Identical values can stand only once.

Tests used:
[1] = biological target: EGFR (UniProt P00533)
[2] = biological target: EGFR (UniProt P00533); remark: listed apart in the source
[3] = biological target: EGFR (UniProt P00533); remark: listed apart in the source
[4] = biological target: CDK2 (UniProt P24941); assay: Enzyme Assay
[5] = biological target: EGFR (mouse) (UniProt P00533); conditions: nih3t3

Sequence of EGFR (P00533 whole entry, looked up): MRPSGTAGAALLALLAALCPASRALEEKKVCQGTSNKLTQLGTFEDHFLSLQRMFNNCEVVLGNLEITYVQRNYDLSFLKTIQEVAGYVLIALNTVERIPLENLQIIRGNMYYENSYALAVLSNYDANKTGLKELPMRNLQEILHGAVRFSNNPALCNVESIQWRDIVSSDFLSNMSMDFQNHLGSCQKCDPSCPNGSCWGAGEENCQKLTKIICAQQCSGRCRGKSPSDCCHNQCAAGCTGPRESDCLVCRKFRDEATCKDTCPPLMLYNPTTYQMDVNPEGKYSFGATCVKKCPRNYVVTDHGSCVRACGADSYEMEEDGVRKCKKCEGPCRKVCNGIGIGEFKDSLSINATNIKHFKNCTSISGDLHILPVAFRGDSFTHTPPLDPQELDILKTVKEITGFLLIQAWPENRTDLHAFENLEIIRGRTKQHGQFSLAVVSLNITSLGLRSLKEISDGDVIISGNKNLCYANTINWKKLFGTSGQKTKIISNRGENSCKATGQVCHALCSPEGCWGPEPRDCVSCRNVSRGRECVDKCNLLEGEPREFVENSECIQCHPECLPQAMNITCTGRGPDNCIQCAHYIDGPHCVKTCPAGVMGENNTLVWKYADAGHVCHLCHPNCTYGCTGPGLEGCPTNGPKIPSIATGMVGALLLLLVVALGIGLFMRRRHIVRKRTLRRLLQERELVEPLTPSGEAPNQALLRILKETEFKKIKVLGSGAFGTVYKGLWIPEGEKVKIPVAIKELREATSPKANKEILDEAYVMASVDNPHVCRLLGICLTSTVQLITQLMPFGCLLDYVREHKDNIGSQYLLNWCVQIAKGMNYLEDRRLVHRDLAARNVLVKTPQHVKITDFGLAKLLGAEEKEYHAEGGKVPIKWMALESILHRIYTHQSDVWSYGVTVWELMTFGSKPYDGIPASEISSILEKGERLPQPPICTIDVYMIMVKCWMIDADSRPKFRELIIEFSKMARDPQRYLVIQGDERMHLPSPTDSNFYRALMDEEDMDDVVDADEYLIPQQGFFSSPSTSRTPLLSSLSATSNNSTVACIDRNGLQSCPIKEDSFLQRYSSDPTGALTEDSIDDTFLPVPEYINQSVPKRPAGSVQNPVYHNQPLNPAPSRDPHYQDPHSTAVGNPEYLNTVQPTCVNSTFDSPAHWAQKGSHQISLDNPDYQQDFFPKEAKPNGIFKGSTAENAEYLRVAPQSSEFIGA

| Structure (SMILES) | IC50 [1] [µM] | IC50 [2] [µM] | IC50 [3] | IC50 [4] [µM] | IC50 [5] [µM] |
| --- | --- | --- | --- | --- | --- |
| COc1ccccc1-c1ccc2c(c1)NC(=O)/C2=C\c1[nH]c2c(c1C)CCCC2 | > 100 | > 100 | > 50 µM | – | – |
| COc1ccc(-c2ccc3c(c2)NC(=O)/C3=C\c2[nH]c3c(c2CCC(=O)O)CCCC3)cc1 | > 100 | > 100 | – | – | – |
| COc1cccc(-c2ccc3c(c2)NC(=O)/C3=C\c2cc3c([nH]2)CCCC3)c1 | > 100 | – | 31.8 µM and > 50 µM | – | – |
| CCc1cc(CC)c(/C=C2\C(=O)Nc3cc(-c4ccccc4)ccc32)[nH]1 | > 100 | > 100 | > 50 µM | – | – |
| CC(C)(C)c1cc(C(=O)Nc2cccc3c2C(=O)c2ccccc2-3)n(Cc2ccccc2)n1 | – | – | > 50 µM | – | – |
| CC(C)(C)c1cc(C(=O)Nc2c(F)c(F)nc(F)c2F)n(Cc2ccccc2)n1 | – | – | 26 µM | – | – |
| CC(C)(C)c1cc(C(=O)c2nccc3ccccc23)n(Cc2ccccc2)n1 | – | – | 22.5 µM | – | – |
| O=C1Nc2ccc(Cl)cc2/C1=C\c1c[nH]cn1 | – | – | – | < 0.78 | – |
| COc1ccc(-c2ccc3c(c2)NC(=O)/C3=C\c2[nH]c3c(c2C)CCCC3)cc1 | > 100 | > 100 | > 50 µM | – | – |
| COc1cccc(-c2ccc3c(c2)NC(=O)/C3=C\c2[nH]c3c(c2C)CCCC3)c1 | > 100 | > 100 | > 50 µM | – | – |
| O=C1Nc2ccc([N+](=O)[O-])cc2/C1=C\c1c[nH]cn1 | – | – | – | < 0.78 | – |
| COc1cc2c(cc1OC)/C(=C\c1c[nH]cn1)C(=O)N2 | – | – | – | 2.4 | – |
| Cc1cc(/C=C2/C(=O)Nc3ccccc32)c(C)c2c1[nH]c1ccccc12 | – | – | 7.03 µM | – | > 100 |
| Cc1ccc(Cn2nc(C)cc2C(=O)Nc2cccc(C(F)(F)F)c2)cc1 | – | – | 6.3 µM and 9.8 µM | – | – |
| COc1ccc(-c2ccc3c(c2)NC(=O)/C3=C\c2[nH]c(C)cc2C)cc1 | > 100 | > 100 | > 50 µM | – | – |
| Nc1ccc2c(c1)/C(=C\c1c[nH]cn1)C(=O)N2 | – | – | – | < 0.78 | – |
| COc1cccc(-c2ccc3c(c2)NC(=O)/C3=C\c2cnc[nH]2)c1 | > 100 | > 100 | > 50 µM and 27.4 µM | – | – |
| COc1ccc(-c2ccc3c(c2)NC(=O)/C3=C\c2cc3c([nH]2)CCCC3)cc1 | > 100 | > 100 | > 50 µM | – | – |
| CCn1c2ccccc2c2cc(NC(=O)c3cc(C(C)(C)C)nn3Cc3ccccc3)ccc21 | – | – | > 50 µM | – | – |
| CC(C)(C)c1cc(C(=O)Nc2ccc(C(F)(F)F)cn2)n(Cc2ccccc2)n1 | – | – | 46.8 µM | – | – |
| Cc1cccc2c1/C(=C\c1c[nH]cn1)C(=O)N2 | – | – | – | 1.1 | – |
| COc1ccc(-c2ccccc2)cc1NC(=O)c1cc(C(C)(C)C)nn1Cc1ccccc1 | – | – | > 50 µM | – | – |
| CC(C)(C)c1cc(C(=O)Nc2cccc(C(F)(F)F)c2)n(Cc2ccccc2)n1 | – | – | 53.4 µM | – | – |
| COc1ccccc1-c1ccc2c(c1)NC(=O)/C2=C\c1cnc[nH]1 | > 100 | > 100 | – | – | – |

| Structure (SMILES) | IC50 [1] [µM] | IC50 [2] [µM] | IC50 [3] | IC50 [4] [µM] | IC50 [5] [µM] |
| --- | --- | --- | --- | --- | --- |
| Cc1cc(C)c(NC(=O)c2cc(C(C)(C)C)nn2Cc2ccccc2)cn1 | – | – | 69.6 µM | – | – |
| COc1ccc(-c2ccc3c(c2)NC(=O)/C3=C\c2ccc(C)s2)cc1 | > 100 | > 100 | > 50 µM | – | – |
| CCOc1cccc(-c2ccc3c(c2)NC(=O)/C3=C\c2cc3c([nH]2)CCCC3)c1 | > 100 | > 100 | > 50 µM | – | – |
| COc1ccc(NC(=O)c2cc(C(C)(C)C)nn2Cc2ccccc2)c(OC)n1 | – | – | > 100 µM | – | – |
| COc1cccc(-c2cc(NC(=O)c3cc(C(C)(C)C)nn3Cc3ccccc3)ccc2OC)c1 | – | – | > 50 µM | – | – |
| CCOc1cccc(-c2ccc3c(c2)NC(=O)/C3=C\c2[nH]c(CC)cc2CC)c1 | > 100 | > 100 | > 50 µM | – | – |
| CC(=O)Nc1ccc2c(c1)C(=O)c1cc(NC(=O)c3cc(C(C)(C)C)nn3Cc3ccccc3)ccc1-2 | – | – | 4.4 µM | – | – |
| CC(C)(C)c1cc(C(=O)Nc2ccc(O)c(-c3cccc(-c4ccccc4)c3)c2)n(Cc2ccccc2)n1 | – | – | > 50 µM | – | – |
| Cc1ccc(/C=C2\C(=O)Nc3cc(-c4ccccc4)ccc32)s1 | > 100 | > 100 | > 50 µM | – | – |
| CC(C)(C)c1cc(C(=O)Nc2ccncc2)n(Cc2ccccc2)n1 | – | – | 28.2 µM | – | – |
| CC(C)(C)c1cc(C(=O)Nc2cccnc2)n(Cc2ccccc2)n1 | – | – | > 100 µM | – | – |
| O=C1Nc2c(Br)cc(Cl)cc2/C1=C\c1c[nH]cn1 | – | – | – | 9.3 | – |
| CCOc1cccc(-c2ccc3c(c2)NC(=O)/C3=C\c2cc(C(C)C)c(OC)c(C(C)C)c2)c1 | > 100 | > 100 | 19.6 µM | – | – |
| O=C1Nc2cc(-c3ccccc3)ccc2/C1=C/c1cc2c([nH]1)CCCC2 | > 100 | > 100 | > 50 µM | – | – |
| CCOc1cccc(-c2ccc3c(c2)NC(=O)/C3=C\c2cnc[nH]2)c1 | > 100 | > 100 | > 50 µM | – | – |
| CC(C)(C)c1cc(C(=O)Nc2ccccc2C(F)(F)F)n(Cc2ccccc2)n1 | – | – | 46.8 µM | – | – |
| COc1cccc(-c2ccc3c(c2)NC(=O)/C3=C\c2cc(C(C)C)c(OC)c(C(C)C)c2)c1 | > 100 | > 100 | 13.7 µM | – | – |
| Cc1ccc(Cn2nc(C)cc2C(=O)Nc2ccc(C(F)(F)F)cc2)cc1 | – | – | 7.1 µM and 9.8 µM | – | – |
| CCOc1cccc(-c2ccc3c(c2)NC(=O)/C3=C\c2[nH]c(C)cc2C)c1 | > 100 | > 100 | > 50 µM | – | – |
| CC(C)(C)c1cc(C(=O)Nc2ccc(C(F)(F)F)cc2)n(Cc2ccccc2)n1 | – | – | 15.6 µM | – | – |
| CC(C)(C)c1cc(C(=O)Nc2ccc3oc(=O)c4ccccc4c3c2)n(Cc2ccccc2)n1 | – | – | 43 µM | – | – |
| CCc1cc(CC)c(/C=C2\C(=O)Nc3cc(-c4cccc(OC)c4)ccc32)[nH]1 | > 100 | > 100 | > 50 µM and 30.9 µM | – | – |
| COc1cccc(-c2ccc3c(c2)NC(=O)/C3=C\c2ccc(N3CCN(C=O)CC3)cc2)c1 | > 100 | > 100 | > 50 µM | – | – |
| COc1cccc(-c2ccc3c(c2)NC(=O)/C3=C\c2[nH]c3c(c2CCC(=O)O)CCCC3)c1 | > 100 | 11.4 | 37.1 µM | – | – |

| Structure (SMILES) | IC50 [1] [µM] | IC50 [2] [µM] | IC50 [3] | IC50 [4] [µM] | IC50 [5] [µM] |
| --- | --- | --- | --- | --- | --- |
| CC(C)(C)c1cc(C(=O)Nc2cccc(-c3ccccc3)c2)n(Cc2ccccc2)n1 | – | – | > 50 µM | – | – |
| COc1ccc(NC(=O)c2cc(C(C)(C)C)nn2Cc2ccccc2)cc1-c1ccccc1 | – | – | > 50 µM | – | – |
| COc1ccccc1-c1ccc2c(c1)NC(=O)/C2=C\c1[nH]c2c(c1CCC(=O)O)CCCC2 | > 100 | > 100 | – | – | – |
| Cc1cnc2ccccc2c1NC(=O)c1cc(C(C)(C)C)nn1Cc1ccccc1 | – | – | 21.2 µM | – | – |
| O=C1Nc2ccc(F)cc2/C1=C\c1c[nH]cn1 | – | – | – | 7.7 | – |
| Cc1ccnc(NC(=O)c2cc(C(C)(C)C)nn2Cc2ccccc2)c1 | – | – | 50.1 µM | – | – |
| CCOc1cccc(-c2ccc3c(c2)NC(=O)/C3=C\c2ccc(C)s2)c1 | > 100 | > 100 | > 50 µM | – | – |
| O=C1Nc2ccccc2/C1=C\c1c[nH]cn1 | – | – | – | < 0.78 | – |
| CCc1cc(CC)c(/C=C2\C(=O)Nc3cc(-c4ccccc4OC)ccc32)[nH]1 | > 100 | > 100 | – | – | – |
| CC(C)(C)c1cc(C(=O)Nc2cc3ccccc3cn2)n(Cc2ccccc2)n1 | – | – | > 100 µM | – | – |
| Cc1cc(C)c2c(c1)NC(=O)/C2=C/c1c[nH]cn1 | – | – | – | < 0.78 | – |
| COc1ccccc1-c1ccc2c(c1)NC(=O)/C2=C\c1cc2c([nH]1)CCCC2 | > 100 | > 100 | 34.1 µM | – | – |
| COc1ccc(-c2ccc3c(c2)NC(=O)/C3=C\c2cnc[nH]2)cc1 | > 100 | > 100 | > 50 µM | – | – |
| CCc1cc(CC)c(/C=C2\C(=O)Nc3cc(-c4ccc(OC)cc4)ccc32)[nH]1 | > 100 | > 100 | > 50 µM | – | – |
| CC(C)(C)c1cc(C(=O)Nc2ccc3c(c2)OCO3)n(Cc2ccccc2)n1 | – | – | 50.1 µM | – | – |
| COc1ccccc1-c1ccc2c(c1)NC(=O)/C2=C\c1[nH]c(C)cc1C | > 100 | > 100 | – | – | – |
| COc1c(C(C)C)cc(/C=C2\C(=O)Nc3cc(-c4ccccc4)ccc32)cc1C(C)C | > 100 | > 100 | – | – | – |
| CC(C)(C)c1cc(C(=O)Nc2ccccn2)n(Cc2ccccc2)n1 | – | – | > 100 µM | – | – |
| CC(C)(C)c1cc(C(=O)Nc2cnc3ccccc3c2)n(Cc2ccccc2)n1 | – | – | 10.2 µM | – | – |
| Cc1cc(C)c(/C=C2\C(=O)Nc3cc(-c4ccccc4)ccc32)[nH]1 | > 100 | > 100 | > 50 µM | – | – |
| Cc1cccnc1NC(=O)c1cc(C(C)(C)C)nn1Cc1ccccc1 | – | – | 53.4 µM | – | – |
| O=C1Nc2cc(-c3ccccc3)ccc2/C1=C/c1cnc[nH]1 | > 100 | > 100 | > 50 µM | – | – |
| O=C(O)CCc1c(/C=C2\C(=O)Nc3cc(-c4ccccc4)ccc32)[nH]c2c1CCCC2 | > 100 | > 100 | – | – | – |
| COc1cccc(-c2ccc3c(c2)NC(=O)/C3=C\c2[nH]c(C)cc2C)c1 | > 100 | > 100 | > 50 µM and 27.3 µM | – | – |
